This note sets out measurements from US20250127778A1, “CANCER IMMUNOTHERAPY COMPOSITION CONTAINING INTERACTION INHIBITOR OF STING AND TRIM29 AS ACTIVE INGREDIENT” (SPARK BIOPHARMA, INC, priority 2021, published 2025).

In the assay the target is T1, TRIM29 (Mus musculus, UniProt Q8R2Q0).
T1 construct: endogenous in cells; host or cells: Raw264.7
T1 sequence (Q8R2Q0 1-587): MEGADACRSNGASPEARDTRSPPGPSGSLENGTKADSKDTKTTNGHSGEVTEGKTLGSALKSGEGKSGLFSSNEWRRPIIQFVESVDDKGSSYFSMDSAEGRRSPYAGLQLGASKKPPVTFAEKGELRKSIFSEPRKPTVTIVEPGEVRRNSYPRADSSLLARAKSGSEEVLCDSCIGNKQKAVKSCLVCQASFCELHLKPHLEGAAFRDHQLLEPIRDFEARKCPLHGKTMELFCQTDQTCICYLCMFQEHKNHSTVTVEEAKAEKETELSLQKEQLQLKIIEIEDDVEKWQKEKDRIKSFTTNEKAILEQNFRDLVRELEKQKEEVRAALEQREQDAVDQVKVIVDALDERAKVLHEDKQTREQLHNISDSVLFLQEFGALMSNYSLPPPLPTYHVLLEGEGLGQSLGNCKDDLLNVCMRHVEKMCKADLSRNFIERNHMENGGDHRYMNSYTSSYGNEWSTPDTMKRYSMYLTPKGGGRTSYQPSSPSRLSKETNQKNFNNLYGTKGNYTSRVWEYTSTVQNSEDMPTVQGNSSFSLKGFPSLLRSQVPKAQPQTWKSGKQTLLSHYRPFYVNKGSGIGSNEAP
Description: ITDRF in Raw264.7 cells, TRIM29. It counts as binding. To be noted: FIG. 14. The source says: It was verified whether the oxopiperazine derivative of the present invention was bound to STING among STING and TRIM29 to inhibit interaction thereof, based on the compound of Formula 1, by the cellular thermal shift assay (CETSA) and the isothermal dose response fingerprint (ITDRF) which were major technologies for verifying the interaction between small molecule compounds and target proteins. (D. M. Molinaetal., Science 2013, 341, 84-87.)
To verify the target of the compound of Formula 1 using the CETSA technique, the human A431 cell lines and mouse Raw264.7 cell lines were seeded on a 100-mm or 150-mm culture dish and cultured for one day. […] Afterwards, centrifugation was performed at 20000 g for 20 minutes at 4° C., the supernatant was transferred to a new container, and each concentration was measured by using the Micro BCA™ protein assay kit (ThermoFisher) according to the protocol of the manufacturer. The concentration of each sample was equally adjusted by using the RIPA lysis buffer, the 5× SDS-PAGE loading buffer (Biosesang) was added according to the ratio of the manufacturer, and the resultant was treated at 95° C. for 5 minutes and analyzed by using the Western blotting method described above.

As to `COc1ccc(CC2=CN(c3ccc(C(=O)NC[C@H]4CCCO4)cc3[N+](=O)[O-])[C@H](C(C)C)C(=O)N2Cc2ccc(O)cc2)cc1` [Formula 1, 4-((R)-4-(4-hydroxybenzyl)-2-isopropyl-5-(4-methoxybenzyl)-3-oxo-3,4-dihydropyrazin-1 (2H)-yl)-3-nitro-N-(((R)-tetrahydrofuran-2-yl)methyl)benzamide], the “ITDRF effect on TRIM29” value is “without affecting TRIM29”.
